Laboratory results as given in patent US9364550B2, “Bioactive carbon nanotube composite functionalized with B-sheet polypeptide block copolymer, and preparation method thereof” (INDUSTRY-ACADEMIC COOPERATION FOUNDATION, YONSEI UNIVERSITY, priority 2011, dated 2016).
Ends that are not written are not given here. Ebes = not defined here

Assays:
Assay type in all cases: physicochemical
[1] = Solubilization of SWCNTs by linear β-sheet block copolypeptide with sonication; details: 5 μg SWCNTs, 0.3 mL peptide solution, pure water, sonication 15 min at room temperature
Protocol: First, it was confirmed whether this potential β-sheet forming peptide can bind to and then solubilize SWCNTs in pure water. The arc-produced SWCNTs were suspended in tetrahydrofuran (THF) and equal amounts of the SWCNTs (5 μg) were added into microcentrifuge tubes. After THF evaporation, the block copolypeptide solution (0.3 mL) was added and the mixture was subjected to sonication at room temperature for 15 min.
Next, the influence of ionic strength on the peptide/SWCNT hybrid formation was investigated. The β-sheet contents of the block copolypeptide solution increased with increasing NaCl concentration, and the increase reached a plateau at a salt concentration of around 50-60 mM (see FIG. 5).
In contrast, the granules became smaller when salt was added (50 mM) and the solution was subjected to a vortex (the right image in a) of FIG. 3). Upon soniciation of both mixtures, a significant difference was evident.
An investigation was made as to whether preassembled β-sheet nanoribbons could be disintegrated and used to solubilize CNTs in the presence of SWCNTs (path 4 or path 5 in FIG. 1).

[2] = Circular dichroism of linear peptide and peptide/SWCNT hybrid; details: CD, molar ellipticity at 215 nm, peptide without SWCNTs
Protocol: (§1) CD spectra were measured using a Chirascan™ circular dichroism spectrometer equipped with a Peltier temperature controller (Applied Photophysics., Ltd.). The spectra were recorded from 250 nm to 190 nm using a 2 mm path-length cuvette. Scans were repeated five times and averaged. The molar ellipticity was calculated per amino acid residue. Before measurement, 5 μM solutions of peptides with and without SWCNTs were incubated for 12 h in 20 mM or 60 mM NaCl at room temperature.

[3] = Circular dichroism of cyclic peptide with and without SWCNTs (α-helix stabilization); details: 50 μM peptide without SWCNTs
Protocol: as §1, with “260” for “250”, “200” for “190”, “50” for “5”, “24” for “12”, “150” for “20”, “KF, and another 50 μM peptide solution without SWCNTs were incubated for 24 h in distilled water.” for “or 60 mM NaCl at room temperature.”
In order to verify the function of SWCNTs as protein mimics supporting the α-helical structures, CD spectra were measured on a 50 μM solution of peptide 2 of Synthesis Example 2 in pure water and a solution of peptide 2 in a 150 mM aqueous salt solution (spectra b (dotted line) and c (alternate long and two short dashes line) of FIG. 10, respectively). Peptide 2 at a concentration of 50 μM was added to a 150 mM aqueous salt solution containing 20 μg of SWCNTs, followed by sonication to form peptide/SWCNT hybrids, which were used for CD spectrum measurement (spectrum a (solid line) of FIG. 10).

Substance	peptide concentration at which most of the SWCNTs were suspended [1]	NaCl concentration at which the increase of β-sheet content reached a plateau [2] [mM]	stabilization of α-helical structure ([3]; 150 mM aqueous salt solution)	stabilization of α-helical structure ([3]; pure water)
GRKKRRQRRRPPQGSGGFKFEFKFEFKFE [block copolypeptide]	around 12.5 μM	50 to 60	–	–
cyclo [-WKWEWKWEWKWEW-Ebes-GTRQARRNRRRRWRR-Ebes-C-] (chain 2 GTRQARRNRRRRWRR-{Ebes-Cys}; reading uncertain; also: cyclic: chain 1-Ebes-chain 2-Ebes-Cys, closed head-to-tail, head-to-tail to a chain's N/C-terminus, printed as cyclo [-WKWEWKWEWKWEW-Ebes-GTRQARRNRRRRWRR-Ebes-C-]) [peptide 2]	–	–	failed to stabilize the α-helical structures	failed to stabilize the α-helical structures
